In patent publication US5262440A, “Antitumor compositions and methods of treatment” (Eli Lilly and Company, priority 1991, dated 1993):

Legend:
[1] = metabolite of sulofenur; cited from earlier work
[2] = metabolite of sulofenur; cited from earlier work; remark: listed apart in the source
[3] = phase I clinical studies; cited from earlier work
[4] = all species (mice, rats, dogs, monkeys); cited from earlier work
[5] = system: C3H mice bearing a 6C3HED lymphosarcoma; test: Toxicity (mice which died relative to total number in group) in C3H mice bearing 6C3HED lymphosarcoma; type: in vivo; conditions: oral gavage, daily for 8 days
Description: (§1) The compounds were tested in C3H mice bearing a 6C3HED lymphosarcoma, also known as the Gardner lymphosarcoma (GLS). The 6C3HED lymphosarcoma was obtained from the Division of Cancer Treatment, National Cancer Institute, Tumor Bank, maintained at E. G. and G. Mason Research (Worcester, Mass.). First passage tumor was stored in liquid nitrogen using standard techniques. The transplanted tumor was reestablished from the Tumor Bank every six months or as needed. The tumor was maintained by serial passage twice weekly in C3H mice.
(§2) Drug therapy on the appropriate schedule was initiated on the day after tumor implantation. The compound being tested was mixed with 2.5% Emulphor EL620 from GAF Corporation (1:40 dilution in 0.9% saline). The total dosage volume for each administration was 2.5 mL. All animals were weighed at the beginning and end of administration of the subject compounds. Food and water were provided ad libitum.
(§3) Each control group and each dosage level of the treated groups consisted of 10 mice selected at random from the pool of implanted animals. The compounds were administered orally by gavage with the use of an 18-gauge needle. Compounds were dosed daily for 8 days.
(§4) The results of several experiments in mice bearing a 6C3HED lymphosarcoma when the instant compounds were administered orally are provided in Table I. In the Table, column 1 gives the dose level of the compound mixture of Example 1, column 2 provides the percent inhibition of tumor growth, and column 3 gives the number of mice which died relative to the total number of animals in the group.

[6] = system: 6C3HED lymphosarcoma (Gardner lymphosarcoma, GLS); test: Percent inhibition of tumor growth in C3H mice bearing 6C3HED lymphosarcoma (Gardner lymphosarcoma, GLS), oral; type: in vivo; conditions: oral gavage, daily for 8 days
Description: as §1
In the procedures utilized here, the tumor was removed from passage animals and minced into 1- to 3-mm cubic fragments using sterile techniques. Tumor pieces were checked for sterility using both Antibiotic Medium 1 and Brain Heart Infusion (Difco, Detroit, Mich.). Recipient mice were shaved and the tumor pieces were implanted subcutaneously in an axillary site by trochar.
as §2, §3
The tumor was measured the day after treatment ended with two dimensional measurements (width and length) of the tumor taken using Vernier calipers. Tumor weights were calculated from these measurements using the following formula:
Tumor weight (mg)=[tumor length (mm)×[tumor width (mm)]^2 ].div.2
At least one control group of an equal number of mice was treated with the same volume of 2.5% Emulphor only. The percent inhibition is determined by subtracting the ratio of the mean tumor size of the test group relative to the control group from one and multiplying the result by 100.
as §4

In the case of `O=C(Nc1ccc(Cl)cc1)NS(=O)(=O)c1ccc2c(c1)CCC2O` (stereo not shown) [N-(1-hydroxyindan-5-sulfonyl)-N'-(4-chlorophenyl)urea], the “contribution of metabolite to adverse effects” value [1] is given as “contribute to the adverse effects”, the “therapeutic activity of metabolite” value [1] is given as “therapeutically inactive” and the “retention in humans compared with other species tested” value [2] is given as “retained longer in humans than in the other species tested”.
For `O=C(Nc1ccc(Cl)cc1)NS(=O)(=O)c1ccc2c(c1)CCC2=O` [N-(1-ketoindan-5-sulfonyl)-N'-(4-chlorophenyl)urea], the “contribution of metabolite to adverse effects” value [1] is given as “contribute to the adverse effects”, the “therapeutic activity of metabolite” value [1] is given as “therapeutically inactive” and the “retention in humans compared with other species tested” value [2] is given as “retained longer in humans than in the other species tested”.
For `O=C(Nc1ccc(Cl)cc1)NS(=O)(=O)c1ccc2c(c1)CCC2` [sulofenur, N-(indan-5-sulfonyl)-N'-(4-chlorophenyl)urea], the “major metabolites in patients” value [3] is given as 1-hydroxy- and 1-ketoindansulfonylureas, the adsorption [4] is given as “good adsorption” and the “metabolism (extent)” value [4] is given as “extensive metabolism”.
For “N-[[(4-chlorophenyl)amino]carbonyl]-indene-5-sulfonamide (A) and N-[[(4-chlorophenyl)amino]carbonyl]-indene-6-sulfonamide (B) [Example 1]”, the “Toxic/Total (mice which died relative to total number of animals in the group)” value ([5]; dosage 25.0 (unit not given)) was 0/10, the “Toxic/Total (mice which died relative to total number of animals in the group)” value ([5]; dosage 50.0 (unit not given)) was 0/10 and the “Toxic/Total (mice which died relative to total number of animals in the group)” value ([5]; dosage 100.0 (unit not given)) was 0/10. For the same molecule, the “Toxic/Total (mice which died relative to total number of animals in the group)” value ([5]; dosage 150.0 (unit not given)) was 0/10, the “Toxic/Total (mice which died relative to total number of animals in the group)” value ([5]; dosage 300.0 (unit not given)) was 0/10 and the “Percent Inhibition (of tumor growth)” value ([6]; dosage 25.0 (unit not given)) was 16%. The “Percent Inhibition (of tumor growth)” value ([6]; dosage 50.0 (unit not given)) was 36%, the “Percent Inhibition (of tumor growth)” value ([6]; dosage 100.0 (unit not given)) was 77% and the “Percent Inhibition (of tumor growth)” value ([6]; dosage 150.0 (unit not given)) was 100%. For the same molecule, the “Percent Inhibition (of tumor growth)” value ([6]; dosage 300.0 (unit not given)) was 100%.
